From ChEMBL document CHEMBL4270494, “Recent insights into synthetic β-carbolines with anti-cancer activities” (Eur J Med Chem, 2017)
Structures can show the parent of a compound that is named as a salt.

Key:
IMR-90 = test: Cytotoxicity against human IMR90 cells; format: functional, cell-based
A-375 = test: Cytotoxicity against human A375 cells; format: functional, cell-based
NCI-H1299 = test: Cytotoxicity against human NCI-H1299 cells; format: functional, cell-based
A549 = test: Cytotoxicity against human A549 cells assessed as reduction in cell viability incubated for 48 hrs by MTT assay; format: functional, cell-based; conditions: A549, 48 h
HT-29 = test: Cytotoxicity against human HT-29 cells assessed as reduction in cell viability incubated for 48 hrs by MTT assay; format: functional, cell-based; conditions: HT-29, 48 h
PC-3 = test: Cytotoxicity against human PC3 cells assessed as reduction in cell viability incubated for 48 hrs by MTT assay; format: functional, cell-based; conditions: PC-3, 48 h
B16 = test: Cytotoxicity against mouse B16 cells assessed as reduction in cell viability incubated for 48 hrs by MTT assay; format: functional, cell-based; conditions: B16, 48 h
MCF7 [1] = test: Induction of apoptosis in human MCF7 cells by Annexin V-FITC dual staining based flow cytometry (reference value: 0.03%); format: functional
MCF7 [2] = test: Cytotoxicity against human MCF7 cells by MTT assay; format: functional, cell-based
CCRF S-180 = test: Antitumor activity against mouse S180 cells implanted in ICR mouse assessed as inhibition of tumor growth at 0.1 umol/kg, ip for 7 consecutive days starting 24 hrs after tumor cell inoculation relative to untreated control; format: functional; conditions: CCRF S-180, ip, read-out: TGI
HepG2 = test: Cytotoxicity against human HepG2 cells by MTT assay; format: functional, cell-based
HeLa = test: Cytotoxicity against human HeLa cells by MTT assay; format: functional, cell-based
HL-60 = test: Cytotoxicity against human HL60(TB) cells incubated for 48 hrs by SRB assay; format: functional; conditions: HL-60, 48 h, read-out: LC50 (the source's name)

Molecule `c1ccc2c(c1)[nH]c1c(CNCCOCCNCc3nccc4c3[nH]c3ccccc34)nccc12` has an IC50 (IMR-90) of 1.6 to 201 µM, an IC50 (A-375) of 3 µM and an IC50 (NCI-H1299) of 1.6 µM.
For `COc1cc(C(=O)/C=C/c2cc3c([nH]c4ccccc43)c(-c3cc(OC)c(OC)c(OC)c3)n2)cc(OC)c1OC`, the IC50 (A549) was 5.3 µM, the IC50 (HT-29) was 23.1 µM and the IC50 (PC-3) was 19.6 µM. For the same molecule, the IC50 (B16) was 6.37 µM.
Work on `O=C(/C=C/c1cc2c([nH]c3ccccc32)c(-c2ccc(C(F)(F)F)cc2)n1)c1ccco1` yielded an Activity (MCF7 [1]) of 58.29% and an IC50 (MCF7 [2]) of 1.56 to 5.29 µM.
In the case of `COc1cc(-c2nc(C(=O)N[C@@H](Cc3c[nH]c4ccccc34)C(=O)N[C@@H](Cc3c[nH]c4ccccc34)C(=O)N[C@@H](CO)C(=O)OCc3ccccc3)cc3c2[nH]c2ccccc23)ccc1O`, the inhibition in vivo at 0.1 µmol/kg (CCRF S-180) is reported as 62.9%.
`CC(=O)N1N=C(c2ccco2)CC1c1cc2c([nH]c3ccccc32)c(-c2ccc(C(F)(F)F)cc2)n1` (configuration not stated) was tested, and the Activity (MCF7 [1]) was 62.64% and the IC50 (MCF7 [2]) was 1.56 to 5.29 µM.
In the case of `COC(=O)c1cc2c([nH]c3ccccc32)c(-c2ccc(OCc3cn(-c4cccc(Cl)c4Cl)nn3)cc2)n1`, the IC50 (HepG2) is reported as 32 µM and the IC50 (HeLa) is reported as 46 µM.
`COc1ccc2[nH]cc(-c3nccc4c3[nH]c3ccc(OC)cc34)c2c1` gave a CC50 (HL-60) of 4.2 µM.
Molecule `CC[C@H](C)[C@H](NC(=O)[C@H](Cc1c[nH]c2ccccc12)NC(=O)[C@H](Cc1c[nH]c2ccccc12)NC(=O)c1cc2c([nH]c3ccccc32)c(-c2ccc(O)c(OC)c2)n1)C(=O)OCc1ccccc1` has an inhibition in vivo at 0.1 µmol/kg (CCRF S-180) of 63.4%.
`COc1cccc2c1C(=O)c1c(O)c3c(c(O)c1C2=O)C[C@@](O)(C(=O)CO)C[C@@H]3O[C@H]1C[C@H](N)[C@H](O)[C@H](C)O1` [DOXORUBICIN HYDROCHLORIDE] showed an inhibition in vivo at 0.1 µmol/kg (CCRF S-180) of 61.1%.
